Results from ChEMBL document CHEMBL1150996, “Syntheses and exploration of new biological activities in ethyl 6/7-substituted and 6, 7-disubstituted quinolin-4-one-3-carboxylates” (1996).
Values after ≈ are worked out from the molar mass of the structure shown. Active and inactive are the calls of the source. No cut-off for these calls is given here.

Experiments:
[1] = test system: Plasmodium yoelii; experiment: (§1) Compound was evaluated for uM; set-up: concentration or dose not given beside the values; conditions: concentration not given here
[2] = test system: Trichophyton benhamiae; experiment: In vitro minimum inhibitory concentration against Trichophyton mentagrophytes; assay type: functional, Arthroderma benhamiae
[3] = test system: Plasmodium yoelii; experiment: (§2) Compound was evaluated for uM concentration.; conditions: concentration not given here
[4] = test system: Plasmodium yoelii; experiment: as §1; conditions: concentration not given here
[5] = test system: Plasmodium yoelii; experiment: Compound was evaluated for anti-heme polymerase activity in intact erythrocytes infected with drug resistant Plasmodium yoelii at 1.0 uM concentration.; assay type: cell-based
[6] = test system: Plasmodium yoelii; experiment: as §2; conditions: concentration not given here; remark: listed apart in the source
[7] = test system: Plasmodium yoelii; experiment: Compound was evaluated for uM: No effect

| Compound | inhibition [1] | MIC [2] | inhibition [4] | inhibition [7] | inhibition [3] | inhibition [5] | inhibition [6] |
| --- | --- | --- | --- | --- | --- | --- | --- |
| CCN(CC)CCCC(C)Nc1ccnc2cc(Cl)ccc12 (configuration not stated) [CHLOROQUINE] |  | 50 µg/mL (≈ 156 µM) | 46% |  | 47% |  |  |
| CCOC(=O)c1cnc2cc(C3=NNC(=O)CC3)ccc2c1O | 69% | 50 µg/mL (≈ 160 µM) |  |  |  |  |  |
| CCOC(=O)c1cnc2ccc(C3(CCC(=O)OC)CCC(=O)NC3=O)cc2c1O (configuration not stated) | 66% | 50 µg/mL (≈ 121 µM) |  |  | 40% | 62% | 11% |
| CCOC(=O)c1cnc2cc(C3CCC(=O)O3)ccc2c1O (configuration not stated) | 46% | 50 µg/mL (≈ 166 µM) |  |  |  |  |  |
| CCOC(=O)c1cnc2ccc(C3(CCC(=O)NC(C)CC)CCC(=O)NC3=O)cc2c1O (configuration not stated) | 71% | 50 µg/mL (≈ 110 µM) |  |  | 42% | 68% | 17% |
| CCOC(=O)c1cnc2ccc(C3(CCC(=O)CCc4ccoc4)CCC(=O)NC3=O)cc2c1O (configuration not stated) | 82% | 50 µg/mL (≈ 104 µM) |  |  |  |  |  |

Now from value to compound, other results behind:

| inhibition [1] | MIC [2] | inhibition [4] | inhibition [7] | Compound | inhibition [3] | inhibition [5] | inhibition [6] |
| --- | --- | --- | --- | --- | --- | --- | --- |
| 88% | 50 µg/mL (≈ 106 µM) |  |  | CCOC(=O)c1cnc2ccc(C3(CCC(=O)NCCC(C)C)CCC(=O)NC3=O)cc2c1O (configuration not stated) |  |  |  |
| 85% | 50 µg/mL (≈ 110 µM) |  |  | CCCCNC(=O)CCC1(c2ccc3ncc(C(=O)OCC)c(O)c3c2)CCC(=O)NC1=O (configuration not stated) |  |  |  |
|  | 50 µg/mL (≈ 190 µM) |  | inactive | CCOC(=O)c1cnc2cc(CO)c(O)cc2c1O |  |  |  |
| 86% | 50 µg/mL (≈ 91.1 µM) |  |  | CCOC(=O)c1cnc2ccc(C3(CCC(=O)CCc4ccc(OC)c(OC)c4)CCC(=O)NC3=O)cc2c1O (configuration not stated) |  |  |  |
